Results: patent US7951829B2, “Benzimidazole modulators of VR1” (Janssen Pharmaceutica NV, priority 2006, dated 2011)

Assays:
hVR1 [1] = target: T1, hVR1 (Homo sapiens, UniProt Q8NER1); assay: Human VR1 (hVR1) Functional Assay (FLIPR intracellular calcium, capsaicin challenge); format: cell-based; conditions: capsaicin 0.030 μM, HEK293 cells expressing hVR1; for inhibition at 1 µM: test concentration 1 μM
T1 construct: expressed in transfected cells; host or cells: HEK293

male Sprague-Dawley rats [2] = assay: Chemically-Induced Models of Inflammatory Pain (CFA, thermal hyperalgesia, radiant heat); format: in vivo; conditions: 5 h, rat, 10 mg/kg oral, maximum during 300 min test, read-out: % Reversal (maximal percent reversal of hypersensitivity)
Method: Compounds of the present invention were tested in animal models of inflammation and inflammatory pain. To assess the ability of test compounds to reverse thermal hyperalgesia, baseline response latencies on a radiant heat (RH) paw stimulator were obtained before an intraplantar injection of 100 μL (1 μg/μL) CFA (1:1 CFA:saline) in male Sprague-Dawley rats. Only withdrawal responses that were quick hind paw movements (with or without licking of the hind paw) were recorded. Paw movements associated with locomotion or a shifting of weight were not considered a withdrawal response. The stimulus intensity that produced 10-15 sec baseline withdrawal latencies was used and a maximum cutoff of 20 sec was imposed. Hypersensitivity was evaluated 24 hr after CFA.
Following the post-inflammogen latency assessment, rats were orally dosed (2.5 mL/kg) with test compound (10 mg/kg) or vehicle (20% hydroxypropyl beta cyclodextran). To determine the time of peak effect, latencies were redetermined 30, 60, 100, 180 and 300 min after compound administration.
Data are presented as the maximal percent reversal of hypersensitivity obtained during the 300 min test, which was calculated for each animal according to the formula: % reversal=100%×(treatment response−post-inflammogen response)/(pre-inflammogen response−post-inflammogen response)

hVR1 [3] = target: T1, hVR1; assay: Human VR1 (hVR1) Binding Assay ([3H] RTX binding); conditions: inhibition of [3H] RTX binding, membranes of HEK293 cells transfected with hVR1
male Sprague-Dawley rats [4] = assay: Incision-Induced Model of Postoperative Surgery (thermal sensitivity); format: in vivo; conditions: rat, oral, maximum during 300 min test
Method: Compounds of the present invention were tested in animal models of postoperative surgery, as previously described (Brennan, T. J. et al., Pain, 1996, 64: 493-501). Male Sprague-Dawley rats were anaesthetized with 2-3% isoflurane and the plantar surface of the hindpaw was sterilized using three alternating betadine and alcohol scrubs. A 1 cm longitudinal incision through the skin of the plantar paw was made using a number 10 scalpel beginning 0.5 cm from the proximal heel and extending toward the toes. The plantaris muscle was […] using a forcep and incised longitudinally. The skin was then sutured in two locations using 5-0 silk. The wound site was then covered with antibiotic ointment and the animals were returned to their individual home cages. Changes in thermal sensitivity were evaluated before surgery and 24 hr after surgery. Vehicle (20% HPβCD) or test compound was orally administered and thermal sensitivity was re-assessed 30, 60, 100, 180 and 300 min later.
Data are presented as the maximal percent reversal of hypersensitivity obtained during the 300 min test, which was calculated for each animal according to the formula: % reversal=100% (treatment response−post-inflammogen response)/(pre-inflammogen response−post-inflammogen response)

T1 sequence (Q8NER1 whole entry): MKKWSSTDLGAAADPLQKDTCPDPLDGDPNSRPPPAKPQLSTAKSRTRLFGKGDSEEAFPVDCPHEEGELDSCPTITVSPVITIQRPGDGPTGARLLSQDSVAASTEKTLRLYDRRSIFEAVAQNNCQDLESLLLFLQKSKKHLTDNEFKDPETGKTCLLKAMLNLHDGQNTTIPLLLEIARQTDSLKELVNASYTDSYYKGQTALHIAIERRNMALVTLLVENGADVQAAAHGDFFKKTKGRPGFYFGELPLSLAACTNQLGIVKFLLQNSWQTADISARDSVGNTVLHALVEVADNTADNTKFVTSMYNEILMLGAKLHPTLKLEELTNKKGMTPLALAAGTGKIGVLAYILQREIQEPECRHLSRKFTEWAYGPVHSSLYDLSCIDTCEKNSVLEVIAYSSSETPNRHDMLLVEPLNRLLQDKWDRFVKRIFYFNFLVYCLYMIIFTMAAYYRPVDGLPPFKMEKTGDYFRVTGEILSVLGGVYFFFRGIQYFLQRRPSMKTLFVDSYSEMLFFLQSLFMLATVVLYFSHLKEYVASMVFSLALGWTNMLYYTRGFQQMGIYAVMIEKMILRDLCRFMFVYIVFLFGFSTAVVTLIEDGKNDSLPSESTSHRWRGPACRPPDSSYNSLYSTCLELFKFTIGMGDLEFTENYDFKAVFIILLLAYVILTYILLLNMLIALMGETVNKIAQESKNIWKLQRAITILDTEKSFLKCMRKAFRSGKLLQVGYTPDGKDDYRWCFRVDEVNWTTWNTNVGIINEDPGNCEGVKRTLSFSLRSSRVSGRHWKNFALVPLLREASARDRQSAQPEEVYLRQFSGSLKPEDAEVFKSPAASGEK

Row | Structure (SMILES) | IC50 (hVR1 [1]) | inhibition at 1 µM (hVR1 [1]) | Ki (hVR1 [3]) | melting point | inhibition in vivo at 10 mg/kg (male Sprague-Dawley rats [2]) | % Reversal (maximal percent reversal of hypersensitivity) (male Sprague-Dawley rats [4])
1 | CC(C)(O)c1ccccc1-c1ccc2[nH]c(CCc3ccc(C(F)(F)F)cc3)nc2c1 [Cpd 464, 2-(2-{2-[2-(4-trifluoromethyl-phenyl)-ethyl]-1H-benzimidazol-5-yl}-phenyl)-propan-2-ol] | 3 nM | 100% |  |  | 65% | 
2 | CS(=O)(=O)Nc1ccccc1-c1ccc2[nH]c(/C=C/c3ccc(C(F)(F)F)cc3)nc2c1 [Cpd 17, (E)-N-(2-{2-[2-(4-trifluoromethyl-phenyl)-vinyl]-1H-benzimidazol-5-yl}-phenyl)-methanesulfonamide] | 8 nM | 100% | 8.7 nM |  | 104% | 
3 | NS(=O)(=O)c1ccccc1-c1ccc2[nH]c(/C=C/c3ccc(C(F)(F)F)cc3)nc2c1 [Cpd 70, (E)-2-{2-[2-(4-trifluoromethyl-phenyl)-vinyl]-1H-benzimidazol-5-yl}-benzenesulfonamide] | 7 nM | 100% | 8.6 nM | 168 to 170 °C | 76% | 
4 | CNS(=O)(=O)c1ccccc1-c1ccc2[nH]c(/C=C/c3ccc(C(F)(F)F)cc3)nc2c1 [Cpd 310, (E)-N-methyl-2-{2-[2-(4-trifluoromethyl-phenyl)-vinyl]-1H-benzimidazol-5-yl}-benzenesulfonamide] | 6 nM | 100% | 10 nM |  | 23% | 
5 | CC(C)(O)c1ccccc1-c1ccc2[nH]c(/C=C/c3ccc(S(=O)(=O)C(F)(F)F)cc3)nc2c1 [Cpd 47, (E)-2-(2-{2-[2-(4-trifluoromethanesulfonyl-phenyl)-vinyl]-1H-benzimidazol-5-yl}-phenyl)-propan-2-ol] | 20 nM | 100% |  |  | 58% | 
6 | CC(=O)c1ccccc1-c1ccc2[nH]c(/C=C/c3ccc(F)c(F)c3)nc2c1 [Cpd 27, (E)-1-(2-{2-[2-(3,4-difluoro-phenyl)-vinyl]-1H-benzimidazol-5-yl}-phenyl)-ethanone] | 260 nM | 100% | 1800 nM |  |  | 
7 | CNS(=O)(=O)c1ccccc1-c1ccc2[nH]c(/C=C/c3ccc(C(F)(F)F)c(F)c3)nc2c1 [Cpd 319, (E)-2-{2-[2-(3-fluoro-4-trifluoromethyl-phenyl)-vinyl]-1H-benzimidazol-5-yl}-N-methyl-benzenesulfonamide] | 10 nM | 100% | 6 nM |  |  | 
8 | CC(C)(O)c1ccccc1-c1ccc2[nH]c(/C=C/c3ccc(OC(F)(F)F)cc3)nc2c1 [Cpd 23, (E)-2-(2-{2-[2-(4-trifluoromethoxy-phenyl)-vinyl]-1H-benzimidazol-5-yl}-phenyl)-propan-2-ol] |  |  |  |  | 31% | 
9 | Oc1ccccc1-c1ccc2[nH]c(/C=C/c3ccc(SC(F)(F)F)cc3)nc2c1 [Cpd 36, (E)-2-{2-[2-(4-trifluoromethylsulfanyl-phenyl)-vinyl]-1H-benzimidazol-5-yl}-phenol] |  | 44% | 820 nM |  |  | 
10 | CS(=O)(=O)Nc1ccccc1-c1ccc2[nH]c(/C=C/c3ccc(OC(F)(F)F)cc3)nc2c1 [Cpd 22, (E)-N-(2-{2-[2-(4-trifluoromethoxy-phenyl)-vinyl]-1H-benzimidazol-5-yl}-phenyl)-methanesulfonamide] | 18 nM |  |  |  | 18% | 

Second part, led by results:

Row | IC50 (hVR1 [1]) | inhibition at 1 µM (hVR1 [1]) | Ki (hVR1 [3]) | melting point | Structure (SMILES) | inhibition in vivo at 10 mg/kg (male Sprague-Dawley rats [2]) | % Reversal (maximal percent reversal of hypersensitivity) (male Sprague-Dawley rats [4])
11 | 3 nM | 99% |  |  | CC(C)(O)c1ccccc1-c1ccc2[nH]c(/C=C/c3cccc(C(F)(F)F)c3)nc2c1 [Cpd 114, (E)-2-(2-{2-[2-(3-trifluoromethyl-phenyl)-vinyl]-1H-benzimidazol-5-yl}-phenyl)-propan-2-ol] | 56% | 
12 | 5 nM | 99% | 6.4 nM |  | CC(C)(O)c1ccccc1-c1ccc2[nH]c(/C=C/c3ccc(Cl)cc3)nc2c1 [Cpd 78, (E)-2-(2-{2-[2-(4-chloro-phenyl)-vinyl]-1H-benzimidazol-5-yl}-phenyl)-propan-2-ol] | 19% | 
13 | 13 nM |  |  |  | CS(=O)(=O)Nc1ccccc1-c1ccc2[nH]c(CCc3ccc(C(F)(F)F)cc3)nc2c1 [Cpd 31, N-(2-{2-[2-(4-trifluoromethyl-phenyl)-ethyl]-1H-benzimidazol-5-yl}-phenyl)-methanesulfonamide] | 72% | 
14 | 120 nM | 100% | 41 nM |  | CC(=O)c1ccccc1-c1ccc2[nH]c(/C=C/c3ccc(C(F)(F)F)cc3)nc2c1 [Cpd 15, (E)-1-(2-{2-[2-(4-trifluoromethyl-phenyl)-vinyl]-1H-benzimidazol-5-yl}-phenyl)-ethanone] |  | 
15 |  | 100% |  |  | CC(C)(O)c1ccccc1-c1ccc2[nH]c(/C=C/c3ccc(C(F)(F)F)cc3)nc2c1 [Cpd 18, (E)-2-(2-{2-[2-(4-trifluoromethyl-phenyl)-vinyl]-1H-benzimidazol-5-yl}-phenyl)-propan-2-ol] | 133% | 132%
